{"source": "patent US20250114362A1", "about": "“METHODS AND COMPOSITIONS FOR TREATMENT OF CUTANEOUS PROLIFERATIVE DISORDERS AND OTHER SKIN CONDITIONS” (ASYMMETRIC THERAPEUTICS, LLC, priority 2022, published 2025)", "key": {"[1]": {"system": "HaCaT cells", "experiment": "M5 cocktail psoriasis-like HaCaT keratinocyte model, live and dead cell numbers by MultiTox-Glo Multiplex Cytotoxicity Assay", "experimental": "Immortalized human keratinocytes (HaCaT cells) purchased from AddexBio (San Diego, CA) were maintained in vitro in Dulbecco's modified Eagle's medium (DMEM) supplemented with 10% Fetal Bovine Serum (FBS) and antibiotics (100 U/mL penicillin and […] streptomycin) and cultured in an incubator with 5% CO2 at 37° C.\nHaCaT cells were seeded at approximately 50% density (1×10^4 cells/well) and after 16 h the medium was replaced with 50 μL of pre-treatment medium containing different concentrations of allopurinol (0, 0.5, or 3 mM) or methotrexate (1 μM) and placed back into the incubator. Treatment media was prepared using standard media containing vehicle control (PBS) or M5 cocktail.\nOther HaCaT cells were incubated in vitro for 72 hours in the presence of a M5 composition that also included 1.0 μM methotrexate, 0.5 mM allopurinol, 3.0 mM allopurinol, 0.5 mM oxypurinol, or 3.0 mM oxypurinol.\nThe number of live and dead cells were determined by the MultiTox-Glo Multiplex Cytotoxicity Assay (Promega, Madison WI) according to the manufacturer's protocol. A dilution series of cells was used to generate a standard curve for calculation of cell number in each well. The total number of cells was the sum of the live and dead cells."}, "[2]": {"system": "p21", "experiment": "MatTek PSE culture system, p21 mRNA by qPCR", "type": "cell-based, human", "conditions": "100 nM; after two days of treatment", "experimental": "(§1) Other markers of cell proliferation were also measured, namely (protein p21), and four markers of inflammatory signaling (IL17A, IL23A, TNF-α, and transforming growth factor beta (TGF-β)) in the MatTek PSE culture system after two days of treatment were also determined. Ki67 is a nuclear protein and a replication marker. The marker levels were determined by isolating total RNA by a Promega SV96 Total RNA Isolation Vacuum System (Promega, Madison, WI) according to the manufacturer's instructions. The total RNA was reverse transcribed using an ABI High Capacity cDNA reverse transcription kit (Applied Biosystems, Foster City, CA). Quantitative real-time polymerase chain reaction (qPCR) was performed with the use of a SYBR Green PCR Master Mix (Applied Biosystems) according to the manufacturer's protocol and amplified on a StepOnePlus Real-Time PCR System."}, "[3]": {"system": "MatTek human PSE culture system (SOR-300-FT)", "experiment": "MatTek human PSE culture system, tissue layer thickness and histology", "conditions": "100 nM", "source_text": "The thickness of each of the three tissue layers of skin was monitored and measured after two days and after six days of exposure to the treatment medium in a blinded fashion by a board-certified and nationally respected pathologist."}, "[4]": {"system": "IL17A", "experiment": "MatTek PSE culture system, IL17A mRNA by qPCR", "type": "cell-based, human", "conditions": "100 nM; after two days of treatment", "experimental": "as §1"}, "[5]": {"system": "IL23A", "experiment": "MatTek PSE culture system, IL23A mRNA by qPCR", "type": "cell-based, human", "conditions": "100 nM; after two days of treatment", "experimental": "as §1"}, "[6]": {"system": "p21/Ki67", "experiment": "MatTek PSE culture system, ratio of p21 to Ki67 mRNA levels", "type": "cell-based, human", "conditions": "after two days of treatment; treatment compositions of Table 5", "experimental": "Ki67 is a replication marker for cells and the lower the value, the lower the replication rate. P21 is a protein which is a marker for the inhibition of cell proliferation. Thus, an increased ratio of P21/Ki67 indicates decreased cell replication. FIG. 9 illustrates this ratio under several conditions as described in Example 2.\nas §1\nTo highlight effects on cell proliferation, the ratio of p21 to Ki67 mRNA levels were calculated, with the results being shown in FIG. 9."}, "[7]": {"system": "TNF-α", "experiment": "MatTek PSE culture system, TNF-α mRNA by qPCR", "type": "cell-based, human", "conditions": "100 nM; after two days of treatment", "experimental": "as §1"}, "[8]": {"system": "Ki67", "experiment": "MatTek PSE culture system, Ki67 level by PCR", "type": "cell-based, human", "conditions": "100 nM", "experimental": "The level of Ki67 in the MatTek tissue culture system was also determined. Ki67 is a nuclear protein and a replication marker. The level of Ki67 was determined by polymerase chain reaction (PCR) analysis with standard protocols. The relative levels are normalized with respect to the measured Ki67 level of the control at Day 0, which is adjusted to 1.0.\nas §1"}, "[9]": {"system": "TGF-β", "experiment": "MatTek PSE culture system, TGF-β mRNA by qPCR", "type": "cell-based, human", "conditions": "100 nM; after two days of treatment", "experimental": "as §1"}, "[10]": {"conditions": "1.0 μM, 0 hours (baseline), M5 cocktail, ± standard deviation"}, "[11]": {"conditions": "1.0 μM, 0 hours (baseline), relative to 9177 live cells at zero hours"}, "[12]": {"conditions": "1.0 μM, 48 hours, M5 cocktail, ± standard deviation"}, "[13]": {"conditions": "1.0 μM, 48 hours, relative to 9177 live cells at zero hours"}, "[14]": {"conditions": "1.0 μM, 72 hours, M5 cocktail, ± standard deviation"}, "[15]": {"conditions": "1.0 μM, 72 hours, relative to 9177 live cells at zero hours"}}, "note": "“And” between values parts separate entries of the source, which are not always exact repeats. Equal values may be shown once.", "data": [{"molecule": "CN(Cc1cnc2nc(N)nc(N)c2n1)c1ccc(C(=O)N[C@@H](CCC(=O)O)C(=O)O)cc1", "note": "[methotrexate]", "values": [{"measurement": "Cell Counts, 0 hours, Dead", "setting": "[1]; [10]", "result": "801 ± 19"}, {"measurement": "Cell Counts, 0 hours, Live", "setting": "[1]; [10]", "result": "9177 ± 90"}, {"measurement": "Cell Ratios, 0 hours, Dead", "setting": "[1]; [11]", "result": 0.087}, {"measurement": "Cell Ratios, 0 hours, Total", "setting": "[1]; [11]", "result": 1.087}, {"measurement": "Cell Counts, 48 hours, Dead", "setting": "[1]; [12]", "result": "4826 ± 464"}, {"measurement": "Cell Counts, 48 hours, Total", "setting": "[1]; [12]", "result": "11194 ± 545"}, {"measurement": "Cell Ratios, 48 hours, Dead", "setting": "[1]; [13]", "result": 0.526}, {"measurement": "Cell Ratios, 48 hours, Total", "setting": "[1]; [13]", "result": 1.220}, {"measurement": "Cell Counts, 72 hours, Dead", "setting": "[1]; [14]", "result": "6300 ± 289"}, {"measurement": "Cell Counts, 72 hours, Total", "setting": "[1]; [14]", "result": "11587 ± 593"}, {"measurement": "Cell Ratios, 72 hours, Dead", "setting": "[1]; [15]", "result": "0.69 and 0.686"}, {"measurement": "Cell Ratios, 72 hours, Total", "setting": "[1]; [15]", "result": "1.26 and 1.263"}]}, {"molecule": "O=c1[nH]c(=O)c2c[nH]nc2[nH]1", "note": "[oxypurinol]", "values": [{"measurement": "Cell Counts, 0 hours, Live", "setting": "[1]; 0.5 mM, 0 hours (baseline), M5 cocktail, ± standard deviation", "result": "9177 ± 90"}, {"measurement": "Cell Ratios, 0 hours, Total", "setting": "[1]; 0.5 mM, 0 hours (baseline), relative to 9177 live cells at zero hours", "result": 1.087}, {"measurement": "Cell Counts, 48 hours, Total", "setting": "[1]; 0.5 mM, 48 hours, M5 cocktail, ± standard deviation", "result": "14960 ± 100"}, {"measurement": "Cell Ratios, 48 hours, Total", "setting": "[1]; 0.5 mM, 48 hours, relative to 9177 live cells at zero hours", "result": 1.630}, {"measurement": "Cell Counts, 72 hours, Total", "setting": "[1]; 0.5 mM, 72 hours, M5 cocktail, ± standard deviation", "result": "17036 ± 222"}, {"measurement": "Cell Ratios, 72 hours, Total", "setting": "[1]; 0.5 mM, 72 hours, relative to 9177 live cells at zero hours", "result": "1.86 and 1.856"}, {"measurement": "Cell Counts, 0 hours, Live", "setting": "[1]; 3.0 mM, 0 hours (baseline), M5 cocktail, ± standard deviation", "result": "9177 ± 90"}, {"measurement": "Cell Ratios, 0 hours, Total", "setting": "[1]; 3.0 mM, 0 hours (baseline), relative to 9177 live cells at zero hours", "result": 1.087}, {"measurement": "Cell Counts, 48 hours, Total", "setting": "[1]; 3.0 mM, 48 hours, M5 cocktail, ± standard deviation", "result": "13069 ± 142"}, {"measurement": "Cell Ratios, 48 hours, Total", "setting": "[1]; 3.0 mM, 48 hours, relative to 9177 live cells at zero hours", "result": 1.424}, {"measurement": "Cell Counts, 72 hours, Total", "setting": "[1]; 3.0 mM, 72 hours, M5 cocktail, ± standard deviation", "result": "14228 ± 282"}, {"measurement": "Cell Ratios, 72 hours, Total", "setting": "[1]; 3.0 mM, 72 hours, relative to 9177 live cells at zero hours", "result": 1.55}, {"measurement": "Cell Counts, 0 hours, Dead", "setting": "[1]; human, 0 h, 0.5 mM", "result": "801 ± 19"}, {"measurement": "Cell Ratios, 0 hours, Dead", "setting": "[1]; human, 0 h, 0.5 mM", "result": 0.087}, {"measurement": "Cell Counts, 0 hours, Dead", "setting": "[1]; human, 0 h, 3 mM", "result": "801 ± 19"}, {"measurement": "Cell Ratios, 0 hours, Dead", "setting": "[1]; human, 0 h, 3 mM", "result": 0.087}, {"measurement": "Cell Counts, 48 hours, Dead", "setting": "[1]; human, 48 h, 0.5 mM", "result": "2937 ± 65"}, {"measurement": "Cell Ratios, 48 hours, Dead", "setting": "[1]; human, 48 h, 0.5 mM", "result": 0.320}, {"measurement": "Cell Counts, 48 hours, Dead", "setting": "[1]; human, 48 h, 3 mM", "result": "2508 ± 124"}, {"measurement": "Cell Ratios, 48 hours, Dead", "setting": "[1]; human, 48 h, 3 mM", "result": 0.273}, {"measurement": "Cell Counts, 72 hours, Dead", "setting": "[1]; human, 72 h, 0.5 mM", "result": "4761 ± 200"}, {"measurement": "Cell Counts, 72 hours, Dead", "setting": "[1]; human, 72 h, 3 mM", "result": "3691 ± 244"}]}, {"molecule": "Vitamin D", "values": [{"measurement": "Relative Expression Levels, p21", "setting": "[2]", "result": "5.10 ± 0.70"}, {"measurement": "Layer Thickness, Dermis", "setting": "[3]; 2 days", "result": 0.25, "unit": "mm"}, {"measurement": "Layer Thickness, Epidermis", "setting": "[3]; 2 days", "result": 0.15, "unit": "mm"}, {"measurement": "Layer Thickness, Stratum Corneum", "setting": "[3]; 2 days", "result": 0.05, "unit": "mm"}, {"measurement": "Layer Thickness, Dermis", "setting": "[3]; 6 days", "result": 0.2, "unit": "mm"}, {"measurement": "Layer Thickness, Epidermis", "setting": "[3]; 6 days", "result": 0.2, "unit": "mm"}, {"measurement": "Layer Thickness, Stratum Corneum", "setting": "[3]; 6 days", "result": 0.2, "unit": "mm"}, {"measurement": "Relative Expression Levels, IL17A", "setting": "[4]", "result": "0.06 ± 0.03"}, {"measurement": "Relative Expression Levels, IL23A", "setting": "[5]", "result": "0.45 ± 0.07"}, {"measurement": "p21/Ki67 ratio (mRNA levels)", "setting": "[6]", "result": "markedly increased"}, {"measurement": "Relative Expression Levels, TNF-α", "setting": "[7]", "result": "0.48 ± 0.17"}, {"measurement": "Relative Ki67 Level", "setting": "[8]; Day 6, normalized to control at Day 0 = 1.0", "result": 1.99}, {"measurement": "Relative Expression Levels, Ki67", "setting": "[8]; after two days of treatment", "result": "0.34 ± 0.01"}, {"measurement": "Relative Expression Levels, TGF-β", "setting": "[9]", "result": "0.35 ± 0.09"}]}]}
